Consider 9 molecules from patent publication US5518735A, “Meta-substituted phenylalanine derivatives” (priority 1990, dated 1996).

Counter-ions that a name gives are not always drawn. Like-named read-outs stand apart in the source and are kept apart here.

One series addresses glandular kallikrein (Sus scrofa, UniProt P00752). Kind of series: Inhibition of glandular kallikrein (Ki). The class given is biochemical. The conditions noted are these: Table 26; read-out: Ki, Gland. Kallikrein.
For a further series, the target named is tPA (Homo sapiens, UniProt P00750). Put plainly: Inhibition of tPA (Ki). Format: biochemical. The conditions noted are these: Table 26.
Chain of tPA (P00750 36-562): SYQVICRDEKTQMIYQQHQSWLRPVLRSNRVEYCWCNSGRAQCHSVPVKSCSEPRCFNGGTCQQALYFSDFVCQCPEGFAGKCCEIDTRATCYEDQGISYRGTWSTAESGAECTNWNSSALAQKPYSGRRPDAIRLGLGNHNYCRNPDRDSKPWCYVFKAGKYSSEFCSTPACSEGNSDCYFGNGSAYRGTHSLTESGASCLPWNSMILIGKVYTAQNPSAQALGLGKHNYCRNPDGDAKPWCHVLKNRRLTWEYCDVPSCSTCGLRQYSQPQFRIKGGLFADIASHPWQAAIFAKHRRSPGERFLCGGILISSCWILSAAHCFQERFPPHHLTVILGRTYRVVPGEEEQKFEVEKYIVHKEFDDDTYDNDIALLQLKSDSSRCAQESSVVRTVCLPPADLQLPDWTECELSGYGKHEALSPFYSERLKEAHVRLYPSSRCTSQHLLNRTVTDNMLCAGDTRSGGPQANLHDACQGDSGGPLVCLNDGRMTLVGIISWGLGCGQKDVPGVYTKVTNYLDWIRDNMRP
The next series deals with T1, plasmin (Homo sapiens, UniProt P00747).
T1 construct: trypsin and the related enzymes thrombin, plasmin, factor Xa, tPA
T1 sequence (P00747 581-810 limits assumed): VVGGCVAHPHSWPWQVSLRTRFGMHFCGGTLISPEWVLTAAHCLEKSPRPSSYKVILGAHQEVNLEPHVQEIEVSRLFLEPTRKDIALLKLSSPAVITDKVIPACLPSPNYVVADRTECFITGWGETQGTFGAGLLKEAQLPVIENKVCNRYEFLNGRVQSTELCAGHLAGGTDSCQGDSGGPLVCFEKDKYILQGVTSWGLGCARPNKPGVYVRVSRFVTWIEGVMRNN
T1 sequence (P00747 97-580 partner limits assumed): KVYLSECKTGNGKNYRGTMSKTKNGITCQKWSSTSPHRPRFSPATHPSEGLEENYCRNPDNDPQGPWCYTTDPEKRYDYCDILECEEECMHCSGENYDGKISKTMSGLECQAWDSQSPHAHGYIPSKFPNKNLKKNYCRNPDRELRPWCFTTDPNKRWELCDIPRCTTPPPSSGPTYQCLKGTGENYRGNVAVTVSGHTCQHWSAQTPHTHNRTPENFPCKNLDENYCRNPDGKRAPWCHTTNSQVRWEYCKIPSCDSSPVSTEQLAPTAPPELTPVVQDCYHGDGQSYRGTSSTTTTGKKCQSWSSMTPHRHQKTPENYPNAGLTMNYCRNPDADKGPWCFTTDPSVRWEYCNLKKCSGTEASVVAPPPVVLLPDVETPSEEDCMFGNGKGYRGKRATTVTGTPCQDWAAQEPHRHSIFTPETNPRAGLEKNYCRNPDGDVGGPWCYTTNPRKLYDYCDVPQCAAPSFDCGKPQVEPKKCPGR
Put plainly: Inhibition of plasmin (Ki). Format: biochemical. The conditions noted are these: Table 26.

The target in another series is thrombin (Bos taurus, UniProt P00735). Put plainly: Inhibition of thrombin (dissociation constant Ki). The class given is biochemical.
The target in the next series is T2, plasma kallikrein (Homo sapiens, UniProt P03952).
T2 construct: glandular kallikrein, factor XIIa and plasma kallikrein
T2 sequence (P03952 391-638 limits assumed, species assumed): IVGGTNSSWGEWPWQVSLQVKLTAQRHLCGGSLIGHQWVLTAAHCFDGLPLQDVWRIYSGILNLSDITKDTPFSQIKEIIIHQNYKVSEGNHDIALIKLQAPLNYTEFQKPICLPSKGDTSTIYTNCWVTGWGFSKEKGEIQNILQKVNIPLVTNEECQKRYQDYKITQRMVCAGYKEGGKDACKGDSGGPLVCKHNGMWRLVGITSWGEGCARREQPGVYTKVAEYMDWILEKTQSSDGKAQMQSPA
T2 sequence (P03952 20-390 partner limits assumed, species assumed): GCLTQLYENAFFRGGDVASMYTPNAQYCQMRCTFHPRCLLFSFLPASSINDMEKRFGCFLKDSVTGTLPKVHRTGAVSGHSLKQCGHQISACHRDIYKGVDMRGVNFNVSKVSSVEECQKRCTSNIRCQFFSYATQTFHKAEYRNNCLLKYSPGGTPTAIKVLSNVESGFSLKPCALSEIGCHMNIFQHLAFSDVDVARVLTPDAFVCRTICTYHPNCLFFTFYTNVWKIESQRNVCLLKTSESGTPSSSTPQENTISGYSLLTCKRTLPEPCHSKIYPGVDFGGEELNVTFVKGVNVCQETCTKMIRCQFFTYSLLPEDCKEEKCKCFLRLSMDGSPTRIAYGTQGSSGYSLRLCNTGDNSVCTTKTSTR
Kind of series: Inhibition of plasma kallikrein (Ki). Format: biochemical. The conditions noted are these: Table 26.

The target of another series is T3, factor XIIa (Homo sapiens, UniProt P00748).
T3 construct: glandular kallikrein, factor XIIa and plasma kallikrein
T3 sequence (P00748 373-615 limits assumed): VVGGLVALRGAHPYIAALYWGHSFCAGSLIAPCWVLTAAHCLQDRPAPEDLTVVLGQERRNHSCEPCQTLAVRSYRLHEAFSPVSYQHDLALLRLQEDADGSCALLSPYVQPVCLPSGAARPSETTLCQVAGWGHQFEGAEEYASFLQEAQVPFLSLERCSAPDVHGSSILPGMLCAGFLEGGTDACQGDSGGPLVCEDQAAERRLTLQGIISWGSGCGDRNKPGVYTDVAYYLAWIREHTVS
Kind of series: Inhibition of factor XIIa (Ki). Format: biochemical. The conditions noted are these: Table 26.

The target in a further series is factor Xa (Bos taurus, UniProt P00743). Kind of series: Inhibition of factor Xa (dissociation constant Ki). The class given is biochemical.
Chain of factor Xa (P00743 234-492 limits assumed): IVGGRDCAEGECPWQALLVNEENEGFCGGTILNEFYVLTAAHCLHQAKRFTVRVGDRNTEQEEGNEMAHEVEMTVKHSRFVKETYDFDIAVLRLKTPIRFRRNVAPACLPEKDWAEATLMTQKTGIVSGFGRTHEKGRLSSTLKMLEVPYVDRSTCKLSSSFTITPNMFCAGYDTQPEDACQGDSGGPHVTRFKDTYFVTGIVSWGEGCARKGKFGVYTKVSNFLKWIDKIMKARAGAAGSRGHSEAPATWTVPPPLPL
Chain of factor Xa (P00743 41-180 partner limits assumed): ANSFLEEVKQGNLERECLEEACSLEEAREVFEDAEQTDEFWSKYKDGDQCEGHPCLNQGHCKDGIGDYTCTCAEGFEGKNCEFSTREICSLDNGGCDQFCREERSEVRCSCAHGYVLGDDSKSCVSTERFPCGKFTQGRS
The next series is described as follows: in vivo. The conditions noted are these: mouse.
A short description of series [1]: Plasma concentration in rats after intravenous administration (HPLC). The conditions noted are these: for pharmacokinetic properties: in words, compared with NAPAP.
Experimental: (§1) For the pharmacokinetic characterization, the plasma concentration of selected derivatives was determined in rats after intravenous (i.v.), subcutaneous (s.c.) and peroral (p.o.) application according to the following three-step procedure:
(§2) 1. A physiological NaCl solution of the substance to be tested was submitted to high pressure liquid chromatography (HPLC) in order to determine its characteristic substance-specific retention time with the chosen test conditions.
(§3) 2. The substance to be tested was diluted in vitro in rat plasma. This solution was also submitted to HPLC to see whether the characteristic peak of the substance once again appeared at the substance-specific retention time.
(§4) 3. […] Blood samples were taken at time intervals of 15 minutes, from which plasma samples were prepared by centrifugation; those samples were also submitted to HPLC to see whether the characteristic peak of the substance appeared again at the substance-specific retention time.
Series [2] in a line: Plasma concentration in rats after subcutaneous administration (HPLC). The conditions noted are these: rat.
Experimental: as §1, §2, §3, §4
A short description of series [3]: Plasma concentration in rats after oral administration (HPLC). The conditions noted are these: rat.
Experimental: as §1, §2, §3, §4
[4] abbreviates: Tables 19-25, read-out: Ki, Factor Xa.

Chain of glandular kallikrein (P00752 8-246): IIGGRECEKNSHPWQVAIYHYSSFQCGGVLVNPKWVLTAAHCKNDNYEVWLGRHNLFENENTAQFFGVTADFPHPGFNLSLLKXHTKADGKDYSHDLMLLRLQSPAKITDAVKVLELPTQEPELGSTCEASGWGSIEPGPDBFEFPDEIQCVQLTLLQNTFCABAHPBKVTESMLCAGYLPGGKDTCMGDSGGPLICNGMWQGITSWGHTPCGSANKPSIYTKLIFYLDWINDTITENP

One may read the Ki as the dissociation constant of the complex between target and ligand, obtained from inhibition or displacement. Turning to `COC(=O)C(Cc1cccc(C(=N)N)c1)NS(=O)(=O)c1ccc2ccccc2c1` (racemic) [Compound 7], the Ki on glandular kallikrein was 210 µM; at tPA, 120 µM; at plasmin, 5.2 µM; at thrombin, 0.28 µM; on plasma kallikrein it was 18 µM; at factor XIIa, 190 µM. For the same molecule, the Ki on factor Xa (setting [4]) came to 2.5 µM.

`CN1CCN(C(=O)C(Cc2cccc(C(=N)N)c2)NS(=O)(=O)c2ccc3ccccc3c2)CC1` (racemic) [Compound 35]: the Ki on glandular kallikrein was over 1000 µM; at tPA, 430 µM; at plasmin, 31 µM; at plasma kallikrein, 85 µM; on factor XIIa it was over 1000 µM; at factor Xa, 30 µM.

Broadly, the LD50 is the dose at which mortality reaches 50%. In turn, `N=C(N)c1cccc(CC(NS(=O)(=O)c2ccc3ccccc3c2)C(=O)N2CCC(C(=O)O)CC2)c1` (racemic) [Compound 85] gave an LD50 at 168 h in the series “in vivo” (iv) of 43 mg/kg. In the series “in vivo” (po), this molecule registered an LD50 at 168 h of over 3000 mg/kg. Further, in series [1] (rat, plasma, iv, 1 mg/kg), the concentration at 2 min worked out at 2350 ng/mL, the concentration at 5 min worked out at 1240 ng/mL, the concentration at 10 min is 526 ng/mL and the concentration at 0.25 h was found to be 334 ng/mL. In series [1] (rat, plasma, iv, 1 mg/kg), this molecule returned a concentration at 0.5 h of 240 ng/mL, a concentration at 0.75 h of 176 ng/mL, a concentration at 1 h of 99 ng/mL and a concentration at 1.5 h of 52 ng/mL. For the same molecule, in series [1] (rat, plasma, iv, 1 mg/kg), the concentration at 2 h was 28 ng/mL and the concentration at 4 h was determined as 14 ng/mL. In [2] (plasma, sc, 5 mg/kg), this molecule registered a concentration at 0.25 h of 1330 ng/mL, a concentration at 0.5 h of 1030 ng/mL, a concentration at 0.75 h of 860 ng/mL and a concentration at 1 h of 834 ng/mL. In [2] (plasma, sc, 5 mg/kg), the concentration at 1.5 h was 913 ng/mL, the concentration at 2 h stood at 977 ng/mL, the concentration at 3 h amounted to 815 ng/mL and the concentration at 4 h was 676 ng/mL. Besides, the concentration at 5 h in [2] (plasma, sc, 5 mg/kg) was found to be 550 ng/mL. Moreover, the Concentration in plasma in series [3] (oral 100 mg/kg, 240 min) is 0 ng/mL. In addition, in series [3] (plasma, po, 100 mg/kg), the concentration at 0.25 h was 870 ng/mL, the concentration at 0.5 h stood at 541 ng/mL, the concentration at 0.75 h was determined as 345 ng/mL and the concentration at 1 h was found to be 120 ng/mL. Besides, in [3] (plasma, po, 100 mg/kg), the concentration at 2 h worked out at 103 ng/mL and the concentration at 3 h came out at 104 ng/mL.

As to `COC(=O)C1CCCCN1C(=O)C(Cc1cccc(C(=N)N)c1)NS(=O)(=O)c1ccc2ccccc2c1` (racemic) [Compound 94], the Ki at glandular kallikrein was over 1000 µM; at tPA, 220 µM; at plasmin, 10.5 µM; at thrombin, 0.07 µM; on plasma kallikrein, 35 µM; on factor XIIa, 500 µM. Besides, the Ki at factor Xa (setting [4]) came out at 46 µM.

Consider `CC1CCN(C(=O)C(Cc2cccc(C(=N)N)c2)NS(=O)(=O)c2cccc3cccnc23)CC1` (racemic) [Compound 171, N-α-(8-quinolinesulfonyl)-3-amidino-(D,L)-phenylalanine-4-methylpiperidide hydroiodide], for which the Ki at glandular kallikrein was 260 µM; on tPA, over 1000 µM; at plasmin it was 100 µM; at thrombin it was 0.34 µM; at plasma kallikrein it was over 1000 µM; on factor XIIa it was 780 µM. Further, at factor Xa (setting [4]), the Ki amounted to 180 µM.

The molecule `NCc1cccc(CC(NS(=O)(=O)c2ccc3ccccc3c2)C(=O)N2CCC(C(=O)O)CC2)c1` (racemic) [Compound 186] had an LD50 at 168 h in “in vivo” (iv) of 100 mg/kg. In “in vivo” (po), the LD50 at 168 h is over 3000 mg/kg. On thrombin, this molecule displayed a Ki of 0.5 µM. In addition, at factor Xa (setting [4]), the Ki was 230 µM. Also, in series [1], the pharmacokinetic properties result is reported as “improved pharmacokinetic properties”. In series [1] (rat, plasma, iv, 1 mg/kg), this molecule came in with a concentration at 2 min of 1840 ng/mL, a concentration at 5 min of 1260 ng/mL, a concentration at 10 min of 653 ng/mL and a concentration at 0.25 h of 426 ng/mL. Also, in series [1] (rat, plasma, iv, 1 mg/kg), the concentration at 0.5 h came out at 225 ng/mL, the concentration at 0.75 h stood at 205 ng/mL, the concentration at 1 h came to 193 ng/mL and the concentration at 1.5 h turned out to be 53 ng/mL. Also, in [1] (rat, plasma, iv, 1 mg/kg), the concentration at 2 h stood at 228 ng/mL. In [2] (plasma, sc, 5 mg/kg), this molecule came in with a concentration at 0.25 h of 251 ng/mL, a concentration at 0.5 h of 368 ng/mL, a concentration at 0.75 h of 444 ng/mL and a concentration at 1 h of 558 ng/mL. In series [2] (plasma, sc, 5 mg/kg), this molecule registered a concentration at 1.5 h of 629 ng/mL, a concentration at 2 h of 534 ng/mL, a concentration at 3 h of 533 ng/mL and a concentration at 4 h of 669 ng/mL. Also, in series [2] (plasma, sc, 5 mg/kg), the concentration at 5 h amounted to 455 ng/mL and the concentration at 6 h came to 340 ng/mL. In series [3] (plasma, po, 100 mg/kg), this molecule gave a concentration at 0.25 h of 996 ng/mL, a concentration at 0.5 h of 800 ng/mL, a concentration at 0.75 h of 769 ng/mL and a concentration at 1 h of 1250 ng/mL. Moreover, in series [3] (plasma, po, 100 mg/kg), the concentration at 1.5 h worked out at 877 ng/mL, the concentration at 2 h turned out to be 619 ng/mL, the concentration at 3 h came to 357 ng/mL and the concentration at 4 h turned out to be 328 ng/mL. In series [3] (plasma, po, 100 mg/kg), this molecule gave a concentration at 5 h of 370 ng/mL and a concentration at 6 h of 326 ng/mL.

Take `N=C(N)Nc1cccc(CC(NS(=O)(=O)c2ccc3ccccc3c2)C(=O)N2CCCCC2C(=O)O)c1` (racemic) [Compound 208, N-α-(2-Naphthylsulfonyl)-3-guanidino-(D,L)-phenylalanine-(D,L)-pipecolic acid hydrochloride]: the figures for the LD50 at 168 h in “in vivo” (iv) and in the series “in vivo” (po) were over 50 mg/kg and over 1000 mg/kg, respectively. Moreover, the figures for the Ki on thrombin and on factor Xa (setting [4]) were 29 µM and 82 µM, respectively.

Take `N=C(N)c1cccc(C[C@H](NS(=O)(=O)c2ccc3ccccc3c2)C(=O)N2CCC[C@H]2C(=O)O)c1` [Nα-2-naphthylsulfonyl-3-amidinophenylalanyl proline]: the inhibition of thrombin result against thrombin (in words) is given as “surprisingly inhibits thrombin”. Also, the “inhibition of factor Xa” value against factor Xa (in words) is “does not selectively inhibit factor Xa”. Besides, the pharmacokinetic properties entry in series [1] is “excellent pharmacokinetic properties”. In addition, the “blood level after subcutaneous administration” value in series [2] (s.c.) is “a relatively high blood level is reached which is maintained in an anticoagulantly effective concentration for a prolonged period of time”. Besides, in [3] (oral), the “detection / concentration in plasma or absorption after oral administration” value is “absorbed by the intestine”.

Regarding `COC(=O)[C@H](Cc1cccc(C(=N)N)c1)NC(=O)CNS(=O)(=O)c1ccc(C)cc1` [TAPAM, Nα-tosylglycyl-3-amidinophenylalanine methyl ester, reference compound], the Ki on glandular kallikrein amounted to 890 µM; on tPA, 27 µM; at plasmin it was 160 µM; at plasma kallikrein, 15 µM; on factor XIIa it was 180 µM. For the same molecule, the LD50 at 168 h in “in vivo” (iv) is 103 mg/kg; in the series “in vivo” (po) it was over 1000 mg/kg.
